pEC50: −log10 of the molar value.
How the values were obtained:
S1P1 [1] = molecular target: T1, S1P1 (Homo sapiens, UniProt P21453); experiment: S1P1 internalization assay in S1P1-U2OS cells (cell imaging); assay type: cell-based; parameters: host or cells: U2OS (human bone osteosarcoma epithelial cells); settings: U2OS cells expressing S1P1-EGFP, 384-well format
How it was run: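 U2OS cells stably expressing human S1P1-EGFP, serum-starved 2 h in medium with 0.1% fatty-acid-free BSA, then compound 1 h at 37° C. After fixation and Hoechst nuclear stain, receptor internalization imaged as EGFP spot count per nucleus.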
Target sequence in this assay (P21453 whole entry): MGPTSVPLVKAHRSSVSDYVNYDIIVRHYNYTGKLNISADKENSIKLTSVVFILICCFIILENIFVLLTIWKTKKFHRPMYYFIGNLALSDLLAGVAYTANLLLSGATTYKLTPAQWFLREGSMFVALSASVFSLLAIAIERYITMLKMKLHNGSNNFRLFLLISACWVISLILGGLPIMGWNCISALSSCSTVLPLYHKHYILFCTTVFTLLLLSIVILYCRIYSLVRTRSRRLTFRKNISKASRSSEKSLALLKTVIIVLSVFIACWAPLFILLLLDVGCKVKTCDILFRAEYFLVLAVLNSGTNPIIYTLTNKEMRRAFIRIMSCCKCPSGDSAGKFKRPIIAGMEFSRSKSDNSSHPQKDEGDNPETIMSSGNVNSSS

S1P3 = S1P3 (Homo sapiens, UniProt Q99500); experiment: Receptor binding assay, [33P]sphingosine 1-phosphate competition, membranes of CHO cells expressing S1P3; settings: 384 well plate; read-out: S1P3 Binding Ki [M] (384 well plate)
Chain of S1P3 (Q99500 whole entry, species assumed): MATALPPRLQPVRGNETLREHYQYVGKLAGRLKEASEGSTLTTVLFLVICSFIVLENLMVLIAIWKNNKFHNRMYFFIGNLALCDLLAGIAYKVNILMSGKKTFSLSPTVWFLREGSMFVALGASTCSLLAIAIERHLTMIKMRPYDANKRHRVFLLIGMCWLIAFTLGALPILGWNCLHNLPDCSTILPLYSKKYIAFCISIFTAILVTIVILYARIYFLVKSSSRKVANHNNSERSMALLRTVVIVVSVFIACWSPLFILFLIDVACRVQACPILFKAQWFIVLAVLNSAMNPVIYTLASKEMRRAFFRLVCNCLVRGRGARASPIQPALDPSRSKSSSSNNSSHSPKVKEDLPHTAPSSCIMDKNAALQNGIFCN
How it was run: (§1)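 SPA competition on CHO membranes with [33P]S1P at 30 pM (S1P1) or 15 pM (S1P3), in 50 mM HEPES pH 7.5, 5 mM MgCl2, 100 mM NaCl, 0.4% fatty acid-free BSA, 60 min at RT. Non-specific binding defined by 1000-fold unlabeled S1P; Ki values reported.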

S1P1 [2] = molecular target: T1, S1P1; experiment: Receptor binding assay, [33P]sphingosine 1-phosphate competition, membranes of CHO cells expressing S1P1; settings: 384 well plate; read-out: S1P1 Binding Ki [M] (384 well plate)
How it was run: as §1
Target sequence in this assay (P21453 whole entry, species assumed): as the sequence (P21453 whole entry) above

[3] = Pharmacokinetics from lymphopenia study (mouse); assay type: in vivo; settings: PK-PD (30 mpk)
Description: (§2) Female C57BL/6 mice (Elevage Janvier) (8 week old) receive S1P agonists by oral route. Blood is sampled in heparinized (100 IU/kg, ip) mice by intracardiac or retroorbital puncture under isoflurane anesthesia 2 to 120 hrs after drug treatment. The white blood cells (lymphocytes and neutrophils) are counted using a Beckman/Coulter counter. The quality of blood sampling is assessed by counting erythocytes and platelets.
The pharmacokinetic properties of compound of example 31, 2-({2-Fluoro-4-[5-(2′-methyl-2-trifluoromethyl-biphenyl-4-yl)-[1,2,4]oxadiazol-3-yl]-benzyl}-methyl-amino)-2-methyl-propionic acid, are the following: […]

lymphocytes = experiment: Model of S1P agonists-induced lymphopenia in mice; assay type: in vivo; settings: oral route, 30 mpk
Description: as §2

[4] = female, C57BL/6, plasma, 30 mg/kg, oral route

pEC50 (S1P1 [1]): 7.44 | Ki (S1P3): 2.54e-06 M | Ki (S1P1 [2]): 5.32e-09 M | Lymphe node/plasma ratio: 24 h ([3]; 24 h): 2.5 | Lymphe node/plasma ratio: 48 h ([3]; 48 h): 2.7 | CI/F ([3]; oral route): 6.7 mL/min/kg | Kp ([3]; female, C57BL/6, brain/plasma, oral, 30 mg/kg, ratio of AUCz, read-out: Brain/plasma ratio: AUCZ (h*ng/ml)): 3.5 | AUC(0-inf) [3, 4]: 75000 ng·h/mL | Cmax [3, 4]: 7420 ng/mL | Tmax [3, 4]: 2 h | half-life ([3]; female, C57BL/6, plasma, 30 mg/kg, oral route, read-out: T½ (converted)): 6.3 h
SMILES: Cc1ccccc1-c1ccc(-c2nc(-c3ccc(CN(C)C(C)(C)C(=O)O)c(F)c3)no2)cc1C(F)(F)F [Example 31, 2-({2-Fluoro-4-[5-(2′-methyl-2-trifluoromethyl-biphenyl-4-yl)-[1,2,4]oxadiazol-3-yl]-benzyl}-methyl-amino)-2-methyl-propionic acid]
% of lymphopenia in mouse at 48 h (lymphocytes): % of lymphopenia in mouse at 48 h 67 +/− 6
